We go through 15 compounds from ChEMBL document CHEMBL3580594, “Synthesis and biological evaluation of 4-substituted fluoronucleoside analogs for the treatment of hepatitis B virus infection” (J Med Chem, 2015).

Usually inhibition stands for the percentage by which the read-out fell short of the control. The CC50 is the concentration giving 50% cytotoxicity. A low value points to harm at low concentration. As a reminder, the inhibition in vivo is the relative decrease from the control value, in per cent. As usually defined, the Cmax is the maximum level reached in the sampled fluid or tissue. What is called Tmax is the time from dosing to the highest level. As a reminder, the bioavailability is dose-corrected exposure relative to a reference, in per cent. A lower bioavailability goes with little systemic uptake. For orientation: EC50 means the concentration giving half of the maximal effect. Low readings indicate higher potency in that assay, high ones lower potency in that assay.

Data set [1] has as its system Hepatitis B virus. The data set can be described thus: Antiviral activity against Hepatitis B virus in HepG2.CW cells assessed as inhibition of viral DNA replication at 1 uM after 9 days by real-time FQ-PCR analysis. To be noted: 216 h. The class given is functional.
A short description of data set [2]: Cytotoxicity against human HepG2.2.15 cells by MTT assay. The class given is cell-based, HepG2 2.2.15. (Formazan colour is commonly taken as a measure of viable cells.)
Data set [3] relates to Duck hepatitis B virus. The data set can be described thus: Antiviral activity against duck Hepatitis B virus infected in duck assessed as inhibition of viral DNA replication in serum at 20 mg/kg/day, po treatment initiated at day 5 after infection relative to control. The settings on record: 120 h. The class given is functional.
The subject of data set [4] is Duck hepatitis B virus. The data set can be described thus: Antiviral activity against duck Hepatitis B virus infected in duck assessed as inhibition of viral DNA replication in serum at 20 mg/kg/day, po treatment initiated at day 10 after infection relative to control. The class given is functional. To be noted: 240 h.
Data set [5] has as its system Duck hepatitis B virus. The experiment in a line: Antiviral activity against duck Hepatitis B virus infected in duck assessed as inhibition of viral DNA replication in serum at 20 mg/kg/day, po measured after 3 days of treatment withdrawal. In kind it is functional. To be noted: 72 h.
Data set [6] concerns Duck hepatitis B virus. The data set can be described thus: Antiviral activity against duck Hepatitis B virus infected in duck assessed as inhibition of viral DNA replication in liver at 20 mg/kg/day, po treatment initiated at day 5 after infection relative to control. In kind it is functional. The settings on record: 120 h.
Data set [7] relates to Duck hepatitis B virus. The experiment in a line: Antiviral activity against duck Hepatitis B virus infected in duck assessed as inhibition of viral DNA replication in liver at 20 mg/kg/day, po treatment initiated at day 10 after infection relative to control. In kind it is functional. The settings on record: 240 h.
Data set [8] concerns Duck hepatitis B virus. The data set can be described thus: Antiviral activity against duck Hepatitis B virus infected in duck assessed as inhibition of viral DNA replication in liver at 20 mg/kg/day, po measured after 3 days of treatment withdrawal. In kind it is functional. The settings on record: 72 h.
Data set [9] can be described thus: Cmax in Sprague-Dawley rat at 32 mg/kg, po. The settings on record: in vivo. Also noted: dose 32 mg/kg, route oral. In kind it is ADME, organism-based.
Data set [10] can be described thus: Tmax in Sprague-Dawley rat at 32 mg/kg, po. The settings on record: in vivo. In kind it is ADME, organism-based.
A short description of data set [11]: Oral bioavailability in Sprague-Dawley rat at 32 mg/kg. In kind it is ADME, organism-based. The settings on record: in vivo.
For data set [12], the system named is Rattus norvegicus. The data set can be described thus: In vivo drug formation in rat plasma sample treated with 1-((2R,3S,4R,5R)-5-Azido-3-fluoro-4-hydroxy-5-(hydroxymethyl)tetrahydrofuran-2-yl)-4-(cyclopropylamino)-pyrimidin-2(1H)-one by LC-MS/MS analysis. The class given is ADME, organism-based.
Data set [13] deals with Rattus norvegicus. The experiment in a line: In vivo drug formation in rat bile sample treated with 1-((2R,3S,4R,5R)-5-Azido-3-fluoro-4-hydroxy-5-(hydroxymethyl)tetrahydrofuran-2-yl)-4-(cyclopropylamino)-pyrimidin-2(1H)-one by LC-MS/MS analysis. In kind it is ADME, organism-based.
For data set [14], the system named is Rattus norvegicus. The data set can be described thus: In vivo drug formation in rat urine sample treated with 1-((2R,3S,4R,5R)-5-Azido-3-fluoro-4-hydroxy-5-(hydroxymethyl)tetrahydrofuran-2-yl)-4-(cyclopropylamino)-pyrimidin-2(1H)-one by LC-MS/MS analysis. The class given is ADME, organism-based.
Data set [15] has as its system Hepatitis B virus. The experiment in a line: Antiviral activity against wild type Hepatitis B virus. The class given is functional, organism-based.
Data set [16] concerns Hepatitis B virus. The data set can be described thus: Antiviral activity against lamivudine-resistant Hepatitis B virus. The class given is functional, organism-based.
Data set [17] relates to Rattus norvegicus. The experiment in a line: In vivo drug formation in rat urine sample treated with 1-((2R,3S,4R,5R)-5-Azido-3-fluoro-4-hydroxy-5-(hydroxymethyl)tetrahydrofuran-2-yl)-4-(cyclopropylamino)-pyrimidin-2(1H)-one by NMR spectrum. The class given is ADME, organism-based.
Data set [18] relates to Hepatitis B virus. The experiment in a line: Antiviral activity against Hepatitis B virus in HepG2.2.15 cells assessed as inhibition of intracellular viral DNA replication at 0.1 uM after 3 days by real-time FQ-PCR analysis. The class given is functional. The settings on record: HepG2 2.2.15, 72 h.
In data set [19] the test system is Hepatitis B virus. The data set can be described thus: Antiviral activity against Hepatitis B virus in HepG2.2.15 cells assessed as inhibition of intracellular viral DNA replication at 0.1 uM after 6 days by real-time FQ-PCR analysis. In kind it is functional. To be noted: HepG2 2.2.15, 144 h.
The test system of data set [20] is Hepatitis B virus. The experiment in a line: Antiviral activity against Hepatitis B virus in HepG2.2.15 cells assessed as inhibition of intracellular viral DNA replication at 0.1 uM after 9 days by real-time FQ-PCR analysis. The settings on record: HepG2 2.2.15, 216 h. The class given is functional.
Data set [21] concerns Hepatitis B virus. The experiment in a line: Antiviral activity against Hepatitis B virus in HepG2.2.15 cells assessed as inhibition of extracellular viral DNA replication at 0.1 uM after 3 days by real-time FQ-PCR analysis. In kind it is functional. The settings on record: HepG2 2.2.15, 72 h.
Data set [22] deals with Hepatitis B virus. The experiment in a line: Antiviral activity against Hepatitis B virus in HepG2.2.15 cells assessed as inhibition of extracellular viral DNA replication at 0.1 uM after 6 days by real-time FQ-PCR analysis. The class given is functional. The settings on record: HepG2 2.2.15, 144 h.
In data set [23] the test system is Hepatitis B virus. The data set can be described thus: Antiviral activity against Hepatitis B virus in HepG2.2.15 cells assessed as inhibition of extracellular viral DNA replication at 0.1 uM after 9 days by real-time FQ-PCR analysis. The settings on record: HepG2 2.2.15, 216 h. The class given is functional.

Regarding `[N-]=[N+]=N[C@]1(CO)O[C@@H](n2ccc(N3CCCC3)nc2=O)[C@@H](F)[C@@H]1O`, the inhibition at 1 µM in the data set on Hepatitis B virus [1] came to 33.1%. In data set [2], this compound displayed a CC50 of over 125 µM.

For the compound `[N-]=[N+]=N[C@]1(CO)O[C@@H](n2ccc(NC3CCCCC3)nc2=O)[C@@H](F)[C@@H]1O`, the inhibition at 1 µM in the data set with Hepatitis B virus [1] was found to be 23.6%. The CC50 in [2] was over 125 µM.

In the case of `[N-]=[N+]=N[C@]1(CO)O[C@@H](n2ccc(=O)[nH]c2=O)[C@@H](F)[C@@H]1O`, the inhibition at 1 µM in the data set with Hepatitis B virus [1] amounted to 75.5%. The compound further had a 50% cytotoxic concentration (CC50) in [2] of over 125 µM.

Take `Nc1ccn([C@@H]2CS[C@H](CO)O2)c(=O)n1` [LAMIVUDINE]: the inhibition in vivo at 20 mg/kg/day was determined as 88.6% with Duck hepatitis B virus [3]; 82.2% in the data set with Duck hepatitis B virus [4]; 79.3% with Duck hepatitis B virus [5]; 52.7% in the data set on Duck hepatitis B virus [6]; 84% in the data set on Duck hepatitis B virus [7]; 76.2% in the data set with Duck hepatitis B virus [8]. This compound had a Cmax in data set [9] of 274 ng/mL. Also, the Tmax in [10] is 5 h. In addition, the bioavailability in data set [11] worked out at 18.7%.

For the compound `CC(C)Nc1ccn([C@@H]2O[C@@](CO)(N=[N+]=[N-])[C@@H](O)[C@@H]2F)c(=O)n1`, in the data set on Hepatitis B virus [1], the inhibition at 1 µM was found to be 43.7%. For the same compound, the CC50 in data set [2] is over 125 µM.

As for `[N-]=[N+]=N[C@]1(CO)O[C@@H](n2ccc(NC3CC3O)nc2=O)[C@@H](F)[C@@H]1O` (stereo not given in full), the Drug metabolism result with Rattus norvegicus [12], in the data set with Rattus norvegicus [13] and in the data set with Rattus norvegicus [14] was “metabolite_detected” in each case.

For the compound `CNc1ccn([C@@H]2O[C@@](CO)(N=[N+]=[N-])[C@@H](O)[C@@H]2F)c(=O)n1`, in the data set on Hepatitis B virus [1], the inhibition at 1 µM is 81.1%. Further, in data set [2], the CC50 was over 125 µM.

`[N-]=[N+]=N[C@]1(CO)O[C@@H](n2ccc(NC3C(O)C3O)nc2=O)[C@@H](F)[C@@H]1O` (stereo not given in full): the Drug metabolism result in the data set on Rattus norvegicus [14] is “metabolite_detected”.

With `[N-]=[N+]=N[C@]1(CO)O[C@@H](n2ccc(N)nc2=O)[C@@H](F)[C@@H]1O` [RO-0622], the figures for the EC50 in the data set with Hepatitis B virus [15] and with Hepatitis B virus [16] were 0.12 µM and 0.27 µM, respectively. Moreover, the Drug metabolism entry in the data set with Rattus norvegicus [14] and in the data set with Rattus norvegicus [17] was “metabolite_detected” in each case.

As for `CCC(C)Nc1ccn([C@@H]2O[C@@](CO)(N=[N+]=[N-])[C@@H](O)[C@@H]2F)c(=O)n1` (stereo not given in full), the inhibition at 1 µM in the data set with Hepatitis B virus [1] was determined as 61.7%. Besides, the CC50 in [2] is over 125 µM.

With `C=C1[C@H](CO)[C@@H](O)C[C@@H]1n1cnc2c(=O)[nH]c(N)nc21`, the inhibition at 1 µM in the data set with Hepatitis B virus [1] worked out at 95.7%. In data set [2], this compound came in with a CC50 of 30 µM. Moreover, the inhibition at 0.1 µM in the data set with Hepatitis B virus [18] was determined as 37.8%; in the data set on Hepatitis B virus [19], 40.6%; in the data set on Hepatitis B virus [20], 57.6%; in the data set with Hepatitis B virus [21], 38.2%; with Hepatitis B virus [22] it was 47.8%; with Hepatitis B virus [23] it was 78.6%.

Turning to `CCN(CC)c1ccn([C@@H]2O[C@@](CO)(N=[N+]=[N-])[C@@H](O)[C@@H]2F)c(=O)n1`, the inhibition at 1 µM with Hepatitis B virus [1] worked out at 7.1%. Moreover, in data set [2], the 50% cytotoxic concentration (CC50) was over 125 µM.

On to `CN(C)c1ccn([C@@H]2O[C@@](CO)(N=[N+]=[N-])[C@@H](O)[C@@H]2F)c(=O)n1`, for which, in the data set on Hepatitis B virus [1], the inhibition at 1 µM was 43.6%. The compound further yielded a CC50 in data set [2] of over 125 µM.

On to `CCNc1ccn([C@@H]2O[C@@](CO)(N=[N+]=[N-])[C@@H](O)[C@@H]2F)c(=O)n1`, for which the inhibition at 1 µM in the data set on Hepatitis B virus [1] was 78%. Moreover, the CC50 in data set [2] was over 125 µM.

As for `[N-]=[N+]=N[C@]1(CO)O[C@@H](n2ccc(NC3CCCC3)nc2=O)[C@@H](F)[C@@H]1O`, the inhibition at 1 µM in the data set on Hepatitis B virus [1] is 37.3%. For the same compound, in data set [2], the CC50 is over 125 µM.
